Consider two compounds from patent US10111885B2, “Compositions and therapeutic methods for the treatment of complement-associated diseases” (Resverlogix Corp., priority 2015, dated 2018).

Each structure is given as a SMILES string. Read-outs that look alike come from different tables or passages of the source.

One test concerns C3 mRNA. The test can be described thus: Complement gene mRNA expression, TaqMan real-time PCR, HepG2 cells. Type of test: cell-based, human. As to conditions: for IC50: Homo sapiens. The text has this: (§1) In this example, mRNA levels from cultured cells were quantitated. The assay can be used to determine the effect of compound(s) on regulating mRNA levels, including those compounds in the present invention. Complement genes are expressed at high endogenous levels, but their expression can also be stimulated with various cytokines in inflammatory conditions. Experiments in this example target both basal and inflammatory complement gene expression. Compound mediated changes in gene expression and resulting mRNA levels are presented in Tables 2, 3 and 4 as well as FIGS. 1, 2, 3 and 4 below.
(§2) Huh-7 and HepG2 cells are liver-derived cell lines and are models for what can occur in the liver. Huh-7 cells (JCRB Cell Bank) were introduced to 96-well plates (^˜2.5×10^5 per well) in 100 μL DMEM containing 10% (v/v) FBS, 100 U/mL penicillin, 100 ug/mL streptomycin and 5 ug/mL plasmocin (all reagents from Gibco, except for the former, which was obtained from Invivogen). After 24 h, Huh-7 cells were treated with compounds in the same media formulation used for plating, and supplemented with 0.1% DMSO for the amount of time indicated in tables 2, 3, and 4. For select experiments, 24 h post-plating, cells were treated with cytokines and the compound of interest simultaneously, for a total treatment time of 48 h. Alternatively, 24 h after plating, cells were pre-treated with cytokines for 24 h before adding the compound of interest for 48 h. HepG2 cells (ATCC) were cultured in 96-well plates (^˜2.5×10^5 per well) in MEM containing 10% FBS, 1× non-essential amino acids, 1 mM sodium pyruvate, 2 mM L-glutamine, 100 U/mL penicillin, 100 ug/mL streptomycin and 5 ug/mL plasmocin. Serum amount was reduced to 0.5% for treatments with compound or cytokines. Timing of treatment of HepG2 cells with compounds and cytokines was as described for Huh-7 cells. Primary human hepatocytes (CellzDirect/Life Technologies) were plated in collagen coated 96-well plates at 70 000 cells/well, then overlaid with Matrigel™ as recommended by the supplier. Cells were treated with compounds of interest and/or cytokines for the indicated time points in the recommended media supplemented with 0.1% DMSO and 10% FBS (v/v). Cells were harvested by mRNA Catcher PLUS Kit (Life Technologies) followed by real-time PCR using the RNA UltraSense One-Step qRT-PCR System. The level of the mRNA of interest was measured by TaqMan real-time PCR relative to the endogenous control cyclophilin A in the same sample. Data were acquired using the ViiA-7 Real Time PCR System (Applied Biosystems).
(§3) Downregulation of expression of components of the complement cascade will result in reduced activity of the pathway and thus will constitute a positive result. Tables 2 and 3 list the concentration of compounds at which the level of the indicated mRNA is reduced by 50%, as well as the duration of treatment with compound. Table 4 lists the maximum reduction in the indicated mRNA measured in primary human hepatocytes treated with compounds for up to 72 hours. FIGS. 1, 2, 3 and 4 show effects of compounds on cytokine-induced (i.e. inflammatory) expression of complement genes in Huh-7 cells and HepG2 cells.

Another test concerns C4a/C4b mRNA. The test is described as above. Type of test: cell-based, human. The note with it: for IC50: Homo sapiens, HepG2, 72 h, read-out: C4a/C4b (72 h) mRNA, half maximal inhibitory concentration (IC50).
Text: as §1, §2, §3

Another test has as its system C5 mRNA. Described as above. The test is classed as cell-based, human. The note with it: for IC50: Homo sapiens, HepG2, 72 h, read-out: C5 (72 h) mRNA, half maximal inhibitory concentration (IC50).
Text: as §1, §2, §3

The next test relates to C1S mRNA. The test is described as above. The test is classed as cell-based. As to conditions: Homo sapiens; HepG2, 48 h treatment; read-out: C1S (48 h) mRNA, half maximal inhibitory concentration (IC50).
Text: as §1
as §2, with “Data were acquired using the ViiA-7 Real Time PCR System (Applied Biosystems).” left out
(§4) Downregulation of expression of components of the complement cascade will result in reduced activity of the pathway and thus will constitute a positive result. […] Table 4 lists the maximum reduction in the indicated mRNA measured in primary human hepatocytes treated with compounds for up to 72 hours. […]

The test system of a further test is MBL2 mRNA. The description is as above. The test is classed as cell-based. The note with it: Homo sapiens; HepG2, 48 h treatment; read-out: MBL2 (48 h) mRNA, half maximal inhibitory concentration (IC50).
Text: as §1
as §2, with “Data were acquired using the ViiA-7 Real Time PCR System (Applied Biosystems).” left out
as §4

The next test deals with complement C3 protein. The test is described as follows: Secreted complement protein ELISA, HepG2 cells. Type of test: cell-based, human. As to conditions: HepG2, 72 h, ± standard deviation. On the procedure:
(§5) In this example, protein secretion from cells grown in culture in the presence of compound of interest was analyzed by enzyme linked immunosorbent assay (ELISA). In some cases, cultured cells were treated with cytokines and the compound of interest to mimic an inflammatory state. The method can be used to determine the effect of compounds, including those in the present invention, on the secretion of specific proteins from cells grown in culture under basal and cytokine stimulated (i.e. inflammatory) conditions (Table 7, FIGS. 5 and 6).
(§6) Huh-7 cells (JCRB Cell Bank) were introduced to 24-well plates in 500 μL DMEM supplemented with 10% (v/v) FBS, 100 U/mL penicillin, 100 ug/mL streptomycin and 5 ug/mL plasmocin (all reagents from Gibco, except for the former, which comes from Invivogen) at 200 000 cells/well. After 24 h, cells were treated with the compound of interest and/or cytokines in DMEM with 10% FBS containing 0.1% DMSO for a total treatment time of 72 h. Fresh media containing compounds and/or cytokines was introduced in the final 24 h of the experiment. At harvest, media were collected, debris was removed by brief centrifugation, and ELISA assays for the indicated proteins were performed as per the manufacturer's protocol. To correct for differences in cell numbers, values obtained for complement proteins were normalized to values for transferrin. HepG2 cells (ATCC) were cultured in MEM containing 10% FBS, 1× non-essential amino acids, 1 mM sodium pyruvate, 2 mM L-glutamine, 100 U/mL penicillin, 100 ug/mL streptomycin and 5 ug/mL plasmocin. Serum amount was reduced to 0.5% when compounds were present. Treatment combinations and timing were as described above for Huh-7 cells. Primary human hepatocytes (CellzDirect/Life Technologies) were plated in collagen coated 96-well plates at 70 000 cells/well, then overlaid with Matrigel™ as recommended by the supplier. Cells were treated with compounds of interest with or without the indicated cytokines for a total of 72 h in the recommended media supplemented with 10% FBS and 0.1% DMSO (v/v). Media were collected for measurements of secreted proteins.
(§7) The ELISA kits for detection of complement C3, C4, C5 and C9 were obtained from AssayPro (St. Charles, Mo.), while the ELISA reagents for transferrin detection were from Bethyl Laboratories (Montgomery, Tex.). Data were collected on a Thermo Scientific Multiskan GO apparatus. Downregulation of expression of components of the complement cascade will result in reduced activity of the pathway and thus will constitute a positive result.

Another test concerns complement C4 protein. The test can be described thus: Secreted complement protein ELISA, HepG2 cells. Type of test: cell-based, human. The note with it: HepG2, 72 h, ± standard deviation. Here is the method: as §5, §6, §7
The subject of the next test is complement C5 protein. The test is described as follows: Secreted complement protein ELISA, HepG2 cells. The test is classed as cell-based, human. The note with it: HepG2, 72 h, ± standard deviation. Here is the method:
as §5, §6, §7

Setting [1] is: HepG2, 72 h, read-out: C3 (72 h) mRNA, half maximal inhibitory concentration (IC50).
The mark [2] stands for this setting: HepG2 pre-treated with cytokines.
Where [3] appears, read: HepG2 treated simultaneously with cytokines.

In the case of `Cc1sc2c(c1C)C(c1ccc(Cl)cc1)=N[C@@H](CC(=O)OC(C)(C)C)c1nnc(C)n1-2` [JQ1, (S)-tert-butyl 2-(4-(4-chlorophenyl)-2,3,9-trimethyl-6H-thieno[3,2-f][1,2,4]triazolo[4,3-a][1,4]diazepin-6-yl)acetate, reference compound], the IC50 in the test with C3 mRNA (HepG2, 48 h, read-out: C3 (48 h) mRNA, half maximal inhibitory concentration (IC50)) was determined as 200 nM; in the test on C3 mRNA (setting [1]), 490 nM; in the test with C4a/C4b mRNA, 0.25 µM; in the test on C5 mRNA, 0.46 µM; with C1S mRNA it was 0.12 µM; in the test on MBL2 mRNA, 30 nM. For the same compound, in the test with complement C3 protein (0.75 uM), the “C3 secretion, percent maximum reduction in protein levels” value is on record as 54 ± 5%. Further, the “C4 secretion, percent maximum reduction in protein levels” value in the test on complement C4 protein (0.75 uM) amounted to 81 ± 9%. For the same compound, the “C5 secretion, percent maximum reduction in protein levels” value in the test with complement C5 protein (0.75 uM) was determined as 82 ± 7%.

Regarding `COc1cc(OC)c2c(=O)[nH]c(-c3cc(C)c(OCCO)c(C)c3)nc2c1` [RVX000222, 2-(4-(2-hydroxyethoxy)-3,5-dimethylphenyl)-5,7-dimethoxyquinazolin-4(3H)-one], the “expression of complement component 3 at the mRNA level (FIG. 4)” value with C3 mRNA (setting [2]) was “reduces expression”. Besides, in the test with C3 mRNA (setting [3]), the “expression of complement component 3 at the mRNA level (FIG. 2)” value is on record as “reduces expression”. The IC50 was found to be 25000 nM in the test with C3 mRNA (setting [1]); 10 µM in the test with C4a/C4b mRNA; 20 µM in the test on C5 mRNA; 9.56 µM in the test with C1S mRNA; 3880 nM with MBL2 mRNA. Further, in the test on C4a/C4b mRNA (setting [2]), the “expression of complement component 4 at the mRNA level (FIG. 4)” value is “reduces expression”. For the same compound, in the test on C4a/C4b mRNA (setting [3]), the “expression of complement component 4 at the mRNA level (FIG. 2)” value was “reduces expression”. For the same compound, the “expression of complement component 5 at the mRNA level (FIG. 4)” value in the test on C5 mRNA (setting [2]) is given as “reduces expression”. The “expression of complement component 5 at the mRNA level (FIG. 2)” value in the test with C5 mRNA (setting [3]) is “reduces expression”. Also, the “C3 secretion, percent maximum reduction in protein levels” value with complement C3 protein (30 uM) turned out to be 34 ± 5%. Moreover, the “C4 secretion, percent maximum reduction in protein levels” value in the test with complement C4 protein (30 uM) came out at 65 ± 5%. Besides, the “C5 secretion, percent maximum reduction in protein levels” value with complement C5 protein (30 uM) is 77 ± 4%.
